The text below walks through data of US12391799B2, “Peptoid polymers and methods of use” (X-Therma, Inc., priority 2017, dated 2025).

The nature of assay [1]: Vitrification screening assay (critical EG concentration). The class given is physicochemical. To be noted: for Critical Ethylene Glycol Concentration: lowest EG for complete vitrification of 20 μL sample, 5 mg/mL peptoid in formulation, liquid nitrogen immersion; for EG required to permit vitrification: 20 μL sample, 5 mg/mL peptoid, formulation without peptoid needs 20% or more EG. As for the experimental part:
As another means of increasing the throughput of library analysis, a vitrification screening assay was performed to evaluate anti-icing efficacy. For these experiments the compounds named “Compound 11,” “Compound 12,” “Compound 25,” Compound 26,” “Compound 27,” “Compound 28,” “Compound 60,” “Compound 62,” “Compound 63,” “Compound 64,” “Compound 69,” “Compound 70,” “Compound 71,” “Compound 72,” “Compound 73,” “Compound 74,” “Compound 75,” “Compound 76,” “Compound 77,” “Compound 78,” “Compound 81,” “Compound 82,” “Compound 83,” “Compound 84,” and “Compound 85” were tested.
For these experiments, 20 μL samples were flash frozen by liquid immersion in liquid nitrogen. Ethylene glycol (EG) concentrations between 5% and 25% (v/v) were used. A concentration of 5 mg/mL of peptoid polymer compounds were used in formulation. Table 12 lists the lowest concentration of EG necessary to bring about complete vitrification of a 20 μL sample with peptoid polymer in formulation, referred to as the “critical EG concentration.” A sample of formulation without the presence of a peptoid polymer was only able to bring about vitrification at 20% or more EG. Peptoid polymers of interest were able to bring about vitrification within formulas containing EG when the concentration of EG was lower than 20%.

In a further assay the test system is HEK293 cells. Kind of assay: HEK293 survival after storage at −80° C. for 3 days (Alamar Blue). The class given is cell-based, human. Conditions: 1% peptoid in XT Formula, HEK293 stored at −80° C. for 3 days, vs. XT Formula alone. As for the experimental part:
Several compounds were examined in XT Formula at 1% concentration (i.e., 1% peptoid polymer concentration) for their effects on the cryopreservation of HEK293 cells, an adherent cell line derived from human embryonic kidney cells. In particular, the effects of these compounds on the survival of HEK293 cells stored at −80° C. for 3 days were evaluated. An Alamar Blue assay was used to assess cell survival 1 day after stored cells were thawed. A 10% DMSO formula and DMEM cell media only were used as controls.

The next assay relates to K562 cells. Kind of assay: K562 viability after storage at −20° C. for 3 days (Alamar Blue). The class given is cell-based. To be noted: 1% peptoid in XT Formula, K562 stored at −20° C. for 3 days, vs. XT Formula alone. The method, then: Several compounds were examined in XT Formula at 1% concentration (i.e., 1% peptoid polymer concentration) for their ability to increase the viability of cells subjected to super-cooled storage. XT Formula contains HTK buffer, among other components. In particular, the effects of these compounds on the viability of K562 cells stored at −20° C. for 3 days were evaluated. An Alamar Blue assay was used to assess cell viability 7 days after stored cells were thawed.

Assay [2] in a line: Crystallographic x-ray diffraction (XRD) ice crystal formation assay. To be noted: 1 and 5 mg/mL peptoid, EG 15-30% (v/v). It is filed as physicochemical. As for the experimental part:
In order to increase the throughput of library analysis, a crystallographic x-ray diffraction (XRD) technique was used to evaluate ice crystal formation. For these experiments, the compounds named “Compound 2,” “Compound 8,” “Compound 10,” “Compound 11,” “Compound 12,” “Compound 13,” and “Compound 58” were tested. Compound 58 is similar to Compound 12, except that an arginine amino acid has been appended to the N-terminal end.
For these experiments, EG concentrations between 15% and 30% (v/v) were used. Typically, EG, DMSO, and other cryoprotectants are used during XRD sample analysis at concentrations of 35-40% (v/v) to vitrify solutions and avoid diffraction interference from ice crystals. Concentrations of 1 and 5 mg/mL of the peptoid and peptoid-peptide compounds were used. FIGS. 3A, 3B, and 3C illustrate exemplary XRD data under conditions of complete vitrification, partial vitrification with the presence of cubic ice, and freezing ([…]), respectively. FIG. 3D provides ice rings scores for a variety of EG concentrations and two concentrations of Compounds 2, 8, and 12.
“IceRing1” and “IceRing2” refer to ice formation scores, which range between 0 (no ice formation) and 15 (large ice formation).

Numbered stars: 1 amine (or outer) side, 2 acyl side, 3 side chain; on linkers, the order of the positions; unused ones are H or OH. Square brackets hold non-standard residues; d marks the D form. Peptide text beside a SMILES is read from it. X1 = CC(O)CN(CC(=O)[*:2])[*:1]; NBuGly = CCCCNCC(=O)O; NPrGly = CCCNCC(=O)O; Sar = CNCC(=O)O

Turning to `CCC(C)NCC(=O)N(CC(=O)N(CC(=O)N(CC(=O)N(CC(=O)N(CC(=O)N(CC(=O)N(CC(=O)N(CC(=O)N(CC(N)=O)C(C)CC)C(C)CC)CC(C)O)C(C)CC)C(C)CC)C(C)CC)CC(C)O)CC(C)O)C(C)CC` (stereo not drawn) [Compound 70, Nsb-Nsb-Nhp-Nhp-Nsb-Nsb-Nsb-Nhp-Nsb-Nsb], the “Critical Ethylene Glycol Concentration” value in assay [1] was 15.0% (ν/ν).

With `CCC(C)NCC(=O)N(CC(=O)N(CC(=O)N(CC(=O)N(CC(=O)N(CC(=O)N(CC(=O)N(CC(=O)N(CC(=O)N(CC(N)=O)C(C)CC)C(C)CC)CC(C)O)CC(C)O)C(C)CC)C(C)CC)CC(C)O)C(C)CC)C(C)CC` (stereo not drawn) [Compound 72, Nsb-Nsb-Nsb-Nhp-Nsb-Nsb-Nhp-Nhp-Nsb-Nsb], the “Critical Ethylene Glycol Concentration” value in assay [1] is 17.5% (ν/ν).

On to `CCCCNCC(=O)N(CCCC)CC(=O)N(CC(=O)N(CC(=O)N(CCCC)CC(=O)N(CCCC)CC(=O)N(CC(=O)N(CC(=O)N(CCCC)CC(=O)N(CCCC)CC(N)=O)CC(C)O)CC(C)O)CC(C)O)CC(C)O` (stereo not drawn) [Compound 26, Nbu-Nbu-Nhp-Nhp-Nbu-Nbu-Nhp-Nhp-Nbu-Nbu] (H-[NBuGly][NBuGly][X1][X1][NBuGly][NBuGly][X1][X1][NBuGly][NBuGly]-NH2), for which the “Critical Ethylene Glycol Concentration” value in assay [1] is 15.0% (ν/ν).

Take `CCC(C)NCC(=O)N(CC(=O)N(CC(=O)N(CC(=O)N(CC(=O)N(CC(=O)N(CC(=O)N(CC(=O)N(CC(=O)N(CC(N)=O)C(C)CC)C(C)CC)C(C)CC)CC(C)O)C(C)CC)C(C)CC)CC(C)O)CC(C)O)C(C)CC` (stereo not drawn) [Compound 69, Nsb-Nsb-Nhp-Nhp-Nsb-Nsb-Nhp-Nsb-Nsb-Nsb]: in assay [1], the “Critical Ethylene Glycol Concentration” value is listed as 15.0% (ν/ν).

On to `CC[C@@H](C)NCC(=O)N(CC(=O)N(CC(=O)N(CC(=O)N(CC(=O)N(CC(=O)N(CC(=O)N(CC(=O)N(CC(=O)N(CC(N)=O)[C@H](C)CC)[C@H](C)CC)C[C@H](C)O)C[C@H](C)O)[C@H](C)CC)[C@H](C)CC)C[C@H](C)O)C[C@H](C)O)[C@H](C)CC` [Compound 78, Nbr-Nbr-Nsh-Nsh-Nbr-Nbr-Nsh-Nsh-Nbr-Nbr], for which, in assay [1], the “Critical Ethylene Glycol Concentration” value was 15.0% (ν/ν).

As to `CCC(C)N(CC(=O)N(CC(=O)N(CC(=O)N(CC(=O)N(CC(=O)N(CC(=O)N(CC(=O)N(CC(=O)N(CC(=O)N(CC(N)=O)C(C)CC)C(C)CC)CC(C)O)CC(C)O)C(C)CC)C(C)CC)CC(C)O)CC(C)O)C(C)CC)C(C)=O` (stereo not drawn) [Compound 60, Ac-Nsb-Nsb-Nhp-Nhp-Nsb-Nsb-Nhp-Nhp-Nsb-Nsb], in assay [1], the “EG required to permit vitrification” value is “required significantly less EG in order to permit vitrification” and the “Critical Ethylene Glycol Concentration” value is on record as 12.5% (ν/ν).

As for `CC[C@@H](C)NCC(=O)N(CC(=O)N(CC(=O)N(CC(=O)N(CC(=O)N(CC(=O)N(CC(=O)N(CC(=O)N(CC(=O)N(CC(N)=O)[C@H](C)CC)[C@H](C)CC)C[C@@H](C)O)C[C@@H](C)O)[C@H](C)CC)[C@H](C)CC)C[C@@H](C)O)C[C@@H](C)O)[C@H](C)CC` [Compound 77, Nbr-Nbr-Nrh-Nrh-Nbr-Nbr-Nrh-Nrh-Nbr-Nbr], the “Critical Ethylene Glycol Concentration” value in assay [1] is reported as 15.0% (ν/ν).

`CCC(C)N(CC(N)=O)C(=O)CN(C(=O)CN(CC(C)O)C(=O)CN(CC(C)O)C(=O)CN(C(=O)CN(C(=O)CN(CC(C)O)C(=O)CNCC(C)O)C(C)CC)C(C)CC)C(C)CC` (stereo not drawn) [Compound 82, Nhp-Nhp-Nsb-Nsb-Nhp-Nhp-Nsb-Nsb]: in assay [1], the “EG required to permit vitrification” value was “required significantly less EG in order to permit vitrification” and the “Critical Ethylene Glycol Concentration” value was 12.5% (ν/ν).

With `CCC(C)NCC(=O)N(CC(=O)N(CC(=O)N(CC(=O)N(CC(=O)N(CC(=O)N(CC(=O)N(CC(=O)N(CC(=O)N(CC(N)=O)C(C)CC)C(C)CC)C(C)CO)C(C)CO)C(C)CC)C(C)CC)C(C)CO)C(C)CO)C(C)CC` (stereo not drawn) [Compound 75, Nsb-Nsb-Nyp-Nyp-Nsb-Nsb-Nyp-Nyp-Nsb-Nsb], the “Critical Ethylene Glycol Concentration” value in assay [1] is 15.0% (ν/ν). The “cell survival 1 day after thaw” value with HEK293 cells is on record as “improved cell survival compared to XT Formula alone”.

On to `CNCC(=O)N(C)CC(=O)N(CC(=O)N(CC(=O)N(C)CC(=O)N(C)CC(=O)N(CC(=O)N(CC(=O)N(C)CC(=O)N(C)CC(N)=O)CC(C)O)CC(C)O)CC(C)O)CC(C)O` (stereo not drawn) [Compound 64, Nme-Nme-Nhp-Nhp-Nme-Nme-Nhp-Nhp-Nme-Nme] (H-[Sar][Sar][X1][X1][Sar][Sar][X1][X1][Sar][Sar]-NH2), for which the “Critical Ethylene Glycol Concentration” value in assay [1] was 17.5% (ν/ν). Moreover, the “cell survival 1 day after thaw” value in the assay on HEK293 cells is “improved cell survival compared to XT Formula alone”.

`CCCNCC(=O)N(CCC)CC(=O)N(CC(=O)N(CC(=O)N(CCC)CC(=O)N(CCC)CC(=O)N(CC(=O)N(CC(=O)N(CCC)CC(=O)N(CCC)CC(N)=O)CC(C)O)CC(C)O)CC(C)O)CC(C)O` (stereo not drawn) [Compound 27, Npr-Npr-Nhp-Nhp-Npr-Npr-Nhp-Nhp-Npr-Npr] (H-[NPrGly][NPrGly][X1][X1][NPrGly][NPrGly][X1][X1][NPrGly][NPrGly]-NH2): the “Critical Ethylene Glycol Concentration” value in assay [1] is on record as 12.5% (ν/ν). Moreover, the “cell viability 7 days after thaw” value in the assay with K562 cells is given as “improved cell viability compared to XT Formula alone”. For the same compound, the “cell survival 1 day after thaw” value in the assay with HEK293 cells is “improved cell survival compared to XT Formula alone”.

On to `CCC(C)NCC(=O)N(CC(=O)N(CC(=O)N(CC(=O)N(CC(=O)N(CC(=O)N(CC(=O)N(CC(=O)N(CC(=O)N(CC(N)=O)C(C)CC)C(C)CC)Cc1ccco1)Cc1ccco1)C(C)CC)C(C)CC)Cc1ccco1)Cc1ccco1)C(C)CC` (stereo not drawn) [Compound 73, Nsb-Nsb-Nff-Nff-Nsb-Nsb-Nff-Nff-Nsb-Nsb], for which the “Critical Ethylene Glycol Concentration” value in assay [1] is 20.0% (ν/ν).

Take `CCC(C)NCC(=O)N(CC(=O)N(CC(=O)N(CC(=O)N(CC(=O)N(CC(N)=O)C(C)CC)C(C)CC)CC(C)O)CC(C)O)C(C)CC` (stereo not drawn) [Compound 81, Nsb-Nsb-Nhp-Nhp-Nsb-Nsb]: the “Critical Ethylene Glycol Concentration” value in assay [1] was 15.0% (ν/ν).

Regarding `CCC(C)N(CC(=O)N(CC(=O)N(CC(=O)N(CC(=O)N(CC(=O)N(CC(=O)N(CC(N)=O)CC(C)O)CC(C)O)C(C)CC)C(C)CC)CC(C)O)CC(C)O)C(=O)CN(C(=O)CN(CC(C)O)C(=O)CNCC(C)O)C(C)CC` (stereo not shown) [Compound 11], the “Critical Ethylene Glycol Concentration” value in assay [1] is listed as 15.0% (ν/ν). Besides, the “cell survival 1 day after thaw” value in the assay with HEK293 cells is reported as “improved cell survival compared to XT Formula alone”.

Consider `CCC(C)NCC(=O)N(CC(=O)N(CC(=O)N(CC(=O)N(CC(=O)N(CC(=O)N(CC(=O)N(CC(=O)N(CC(=O)N(CC(N)=O)CC(C)O)CC(C)O)CC(C)O)C(C)CC)CC(C)O)CC(C)O)CC(C)O)CC(C)O)CC(C)O` (stereo not drawn) [Compound 8, Nsb-Nhp-Nhp-Nhp-Nhp-Nhp-Nsb-Nhp-Nhp-Nhp], for which, in assay [2], the “reduction of necessary EG concentration while preventing ice formation (XRD ice ring scores)” value was “significantly reduced necessary EG concentrations while preventing ice formation”.

`CCC(C)NCC(=O)N(CC(=O)N(CC(=O)N(CC(=O)N(CC(=O)N(CC(=O)N(CC(=O)N(CC(=O)N(CC(=O)N(CC(N)=O)CC(C)O)C(C)CC)C(C)CC)C(C)CC)CC(C)O)CC(C)O)CC(C)O)C(C)CC)C(C)CC` (stereo not drawn) [Compound 2, Nsb-Nsb-Nsb-Nhp-Nhp-Nhp-Nsb-Nsb-Nsb-Nhp]: in assay [2], the “reduction of necessary EG concentration while preventing ice formation (XRD ice ring scores)” value was “significantly reduced necessary EG concentrations while preventing ice formation”.

Turning to `CCC(C)NCC(=O)N(CC(=O)N(CCO)CC(=O)N(CCO)CC(=O)N(CC(=O)N(CC(=O)N(CCO)CC(=O)N(CCO)CC(=O)N(CC(=O)N(CC(N)=O)C(C)CC)C(C)CC)C(C)CC)C(C)CC)C(C)CC` (stereo not drawn) [Compound 74, Nsb-Nsb-Nhe-Nhe-Nsb-Nsb-Nhe-Nhe-Nsb-Nsb], the “Critical Ethylene Glycol Concentration” value in assay [1] is on record as 15.0% (ν/ν). Moreover, the “cell viability 7 days after thaw” value with K562 cells is listed as “improved cell viability compared to XT Formula alone”.
